Data: patent US20100130737A1, “Regulating Agent of GPR34 Receptor Function” (TAKEDA PHARMACEUTICAL COMPANY LIMITED, priority 2005, published 2010)

How the values were obtained:
[1] = biological target: human GPR34 (Homo sapiens, UniProt Q9UPC5); test: Human GPR34 antagonist activity indicated by changes in intracellular calcium concentration (FLIPR); type: cell-based; set-up: expressed in transfected cells; host or cells: CHO cells (human GPR34CHO line) stably transfected with pCR3.1 human lung Gα16; settings: CHO cells expressing human GPR34/Gα16, against 2 μM lysoPS final concentration, Fluo-3AM
Description: CHO cells expressing human GPR34/Gα were diluted to 3×10^4/100 μl in cell culture medium [nucleic acid-free Minimum Essential Alpha Medium (Invitrogen) containing 10% dialyzed fetal bovine serum (Invitrogen) 0.5 mg/ml Geneticin (Invitrogen), penicillin and streptomycin (Invitrogen)], dispensed 100 μl per well into a Black walled 96-well plate (Costar), and cultured overnight in a CO2 incubator. Changes in intracellular calcium concentration were measured with a FLIPR (Molecular Device) by the methods described below.
50 μg of Fluo-3AM (Dojindo) was dissolved in 21 μl of DMSO (Dojindo), an equal amount of 20% pluronic acid (Molecular Probes) was added and mixed, and this was added to 10.6 ml of assay buffer [prepared by adding 20 ml of 1 M HEPES (pH 7.4, Dojindo) to HBSS (Invitrogen), and then adding 10 ml of a solution obtained by dissolving 710 mg of Probenecid (Sigma) in 5 ml of 1 N NaOH and then adding and mixing 5 ml of the HBSS/HEPES solution)] with 105 μl of fetal bovine serum added thereto to prepare a fluorescent dye solution. The medium was removed from the cell plate, 100 μl per well of the fluorescent dye solution was immediately poured in, and the cells were cultured for 1 hour in a CO2 incubator to incorporate the fluorescent dye into the cells. After culture, the cells were washed with the aforementioned assay buffer. The compound was dissolved in DMSO (Wako Pure Chemical), diluted with DMSO as necessary, added to the aforementioned assay buffer to the target concentration and poured into the plate. To measure antagonist activity, 8 μM lysophosphatidyl serine (lysoPS, Alexis) solution (2 μM final concentration during reaction) was poured into the plate, which was set in the FLIPR. Following these preliminaries, the agonist effect was measured in the FLIPR by measuring changes in intracellular calcium concentration up to 180 seconds after addition of the sample, and after 200 seconds lysoPS was added and the antagonist effect was measured. In the case of the agonist effect, the EC50 value of the added compound was calculated from the dose reaction curve using changes in fluorescent strength from 0 to 180 seconds after the start of the reaction. In the case of the antagonist effect, the IC50 was calculated from the dose reaction curve using changes in maximum fluorescent strength after 200 to 380 seconds of reaction time. The data was analyzed using “GraphPad PRISM4”.

Sequence of human GPR34 (Q9UPC5 whole entry): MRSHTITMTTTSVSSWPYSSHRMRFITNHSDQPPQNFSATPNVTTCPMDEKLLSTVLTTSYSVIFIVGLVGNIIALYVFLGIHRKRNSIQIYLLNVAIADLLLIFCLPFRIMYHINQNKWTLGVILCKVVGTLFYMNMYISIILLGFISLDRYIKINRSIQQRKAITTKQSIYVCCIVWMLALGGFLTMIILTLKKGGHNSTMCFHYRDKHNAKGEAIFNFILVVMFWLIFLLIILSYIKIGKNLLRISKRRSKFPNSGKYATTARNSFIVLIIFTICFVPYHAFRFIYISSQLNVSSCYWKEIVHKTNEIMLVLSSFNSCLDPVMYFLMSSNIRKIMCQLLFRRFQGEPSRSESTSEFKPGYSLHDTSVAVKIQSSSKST

SMILES	melting point	IC50 [1]
O=C(N[C@@H](Cc1ccc(OCc2ccccc2)cc1)C(=O)O)c1cc2ccc(-c3ccc(Cl)cc3)cc2s1 [Example C122, O-Benzyl-N-{[6-(4-chlorophenyl)-1-benzothiophene-2-yl]carbonyl}tyrosine]	237 to 239 °C	≤ 1000 nM
O=C(N[C@@H](Cc1ccc(OCc2ccccc2)cc1)C(=O)O)c1cc2cc(-c3ccc(Cl)cc3)ccc2s1 [Example C123, O-Benzyl-N-{[5-(4-chlorophenyl)-1-benzothiophene-2-yl]carbonyl}tyrosine]	206 to 207 °C	≤ 1000 nM
O=C(N[C@@H](Cc1ccc(OCc2ccccc2)cc1)C(=O)O)c1cc2cc(C#Cc3ccccc3)ccc2s1 [Example C139, O-Benzyl-N-{[5-(phenylethynyl)-1-benzothiophene-2-yl]carbonyl}tyrosine]	198 to 199 °C	≤ 1000 nM
Cc1c(C(=O)N[C@@H](Cc2ccc(OCc3ccccc3)cc2)C(=O)O)oc2ccc(-c3ccc(Cl)cc3)cc12 [Example C142, O-Benzyl-N-{[5-(4-chlorophenyl)-3-methyl1-benzofuran-2-yl]carbonyl}tyrosine]	209 to 210 °C	≤ 1000 nM
O=C(N[C@@H](Cc1ccc(OCc2ccccc2)cc1)C(=O)O)c1cc2ccc(-c3ccc(Cl)cc3)cc2o1 [Example C143, O-Benzyl-N-{[6-(4-chlorophenyl)-1-benzofuran-2-yl]carbonyl}tyrosine]	170 to 171 °C	≤ 1000 nM
O=C(N[C@@H](Cc1ccc(OCc2ccccc2)cc1)C(=O)O)c1nc2ccc(/C=C/c3ccccc3)cc2[nH]1 [Example C144, O-Benzyl-N-({6-[(E)-2-phenylethenyl]-1H-benzimidazol-2-yl)carbonyl)tyrosine]	247 °C (dec.)	≤ 1000 nM
O=C(N[C@@H](Cc1ccc(OCc2ccccc2)cc1)C(=O)O)C1=Cc2ccc(-c3ccc(Cl)cc3)cc2SC1 [Example C145, O-Benzyl-N-{[7-(4-chlorophenyl)-2H-thiochromene-3-yl]carbonyl}tyrosine]	225 to 227 °C	≤ 1000 nM
O=C(N[C@@H](Cc1ccc(OCc2ccccc2)cc1)C(=O)O)c1cc2cc(-c3ccc(Cl)cc3)ccc2[nH]c1=O [Example C146, O-Benzyl-N-{[6-(4-chlorophenyl)-2-oxo-1,2-dihydroquinolin-3-yl]carbonyl}tyrosine]	298 to 299 °C	≤ 1000 nM
Nc1c(C(=O)N[C@@H](Cc2ccc(OCc3ccccc3)cc2)C(=O)O)oc2cc(-c3ccc(Cl)cc3)ccc12 [Example C147, N-{[3-Amino-6-(4-chlorophenyl)-1-benzofuran-2-yl]carbonyl}-O-benzyltyrosine]	250 °C (dec.)	≤ 1000 nM
O=C(N[C@@H](Cc1ccc(OCc2ccccc2)cc1)C(=O)O)c1cc2cc(-c3ccc(Cl)cc3)ccc2o1 [Example C148, O-Benzyl-N-{[5-(4-chlorophenyl)-1-benzofuran-2-yl]carbonyl}tyrosine]	250 to 251 °C	≤ 1000 nM
O=C(N[C@@H](Cc1ccc(OCc2cccc(F)c2)cc1)C(=O)O)c1cc2ccc(-c3ccc(Cl)cc3)cc2o1 [Example C153, N-{[6-(4-Chlorophenyl)-1-benzofuran-2-yl]carbonyl}-O-(3-fluorobenzyl)tyrosine]	162 to 163 °C	≤ 1000 nM
O=C(N[C@@H](Cc1ccc(OCc2ccccc2)cc1)C(=O)O)c1cc2ccc(-c3ccc(Cl)cc3)cc2[nH]1 [Example C163, O-Benzyl-N-{[6-(4-chlorophenyl)-1H-indol-2-yl]carbonyl}tyrosine]	202 to 204 °C	≤ 1000 nM
Cn1c(C(=O)N[C@@H](Cc2ccc(OCc3ccccc3)cc2)C(=O)O)cc2ccc(-c3ccc(Cl)cc3)cc21 [Example C164, O-Benzyl-N-{[6-(4-chlorophenyl)-1-methyl-1H-indole-2-yl]carbonyl}tyrosine]	205 to 206 °C	≤ 1000 nM
O=C(N[C@@H](Cc1ccc(OCc2ccccc2)cc1)C(=O)O)c1cc2cc(-c3ccc(Cl)cc3)ccc2[nH]1 [Example C165, O-Benzyl-N-{[5-(4-chlorophenyl)-1H-indol-2-yl]carbonyl}tyrosine]	239 to 240 °C	≤ 1000 nM
Cn1c(C(=O)N[C@@H](Cc2ccc(OCc3ccccc3)cc2)C(=O)O)cc2cc(-c3ccc(Cl)cc3)ccc21 [Example C166, O-Benzyl-N-{[5-(4-chlorophenyl)-1-methyl-1H-indol-2-yl]carbonyl}tyrosine]	238 to 239 °C	≤ 1000 nM
O=C(N[C@@H](Cc1ccc(OCc2ccccc2)cc1)C(=O)O)c1nc2ccc(-c3ccc(Cl)cc3)cc2[nH]1 [Example C167, O-Benzyl-N-{[6-(4-chlorophenyl)-1H-benzimidazol-2-yl]carbonyl}tyrosine]	260 to 261 °C	≤ 1000 nM
O=C(/C=C/c1cccc(-c2ccc(Cl)cc2)c1)N[C@@H](Cc1ccc(OCc2ccccc2)cc1)C(=O)O [Example D1, O-Benzyl-N-[(2E)-3-(4′-chlorobiphenyl-3-yl)propa-2-enoyl]tyrosine]	194 to 195 °C	≤ 1000 nM
O=C(/C=C/c1ccc(-c2ccc(Cl)cc2)cc1)N[C@@H](Cc1ccc(OCc2ccccc2)cc1)C(=O)O [Example D2, O-Benzyl-N-[(2E)-3-(4′-chlorobiphenyl-4-yl)propa-2-enoyl]tyrosine]	253 to 254 °C	≤ 1000 nM

The remaining lines, values ahead:

melting point	IC50 [1]	SMILES
270 to 271 °C	≤ 1000 nM	O=C(N[C@@H](Cc1ccc(OCc2ccccc2)cc1)C(=O)O)c1cn2cc(-c3ccc(Cl)cc3)ccc2n1 [Example E1, O-Benzyl-N-{[6-(4-chlorophenyl)imidazo[1,2-a]pyridin-2-yl]carbonyl}tyrosine]
242 to 243 °C	≤ 1000 nM	O=C(N[C@@H](Cc1ccc(OCc2ccccc2)cc1)C(=O)O)c1cn2nc(-c3ccc(Cl)cc3)ccc2n1 [Example E3, O-Benzyl-N-{[6-(4-chlorophenyl)imidazo[1,2-b]pyridazin-2-yl]carbonyl}tyrosine]
260 °C	≤ 1000 nM	O=C(N[C@@H](Cc1ccc(NCc2ccccc2)cc1)C(=O)O)c1cn2cc(-c3ccc(Cl)cc3)ccc2n1 [Example E5, 4-(Benzylamino)-N-([6-(4-chlorophenyl)imidazo[1,2-a]pyridin-2-yl]carbonyl}phenylalanine]
218 °C	≤ 1000 nM	O=C(N[C@@H](Cc1ccc(OCc2ccccc2)cc1)C(=O)O)c1cn2c(-c3ccc(Cl)cc3)cccc2n1 [Example E9, O-Benzyl-N-{[5-(4-chlorophenyl)imidazo[1,2-a]pyridin-2-yl]carbonyl}tyrosine]
216 °C	≤ 1000 nM	CN(C(=O)c1cn2cc(-c3ccc(Cl)cc3)ccc2n1)[C@@H](Cc1ccc(OCc2ccccc2)cc1)C(=O)O [Example E12, O-Benzyl-N-{[6-(4-chlorophenyl)imidazo[1,2-a]pyridin-2-yl]carbonyl}-N-methyltyrosine]
102 to 103 °C	≤ 1000 nM	O=C(N[C@@H](Cc1ccc(OCc2ccccc2)cc1)C(=O)O)c1cc2nccc(-c3ccc(Cl)cc3)n2n1 [Example E16, O-Benzyl-N-{[7-(4-chlorophenyl)pyrazolo[1,5-a]pyrimidin-2-yl]carbonyl}tyrosine]
238 °C	≤ 1000 nM	O=C(N[C@@H](Cc1ccc(OCc2ccccc2)cc1)C(=O)O)c1cn2cc(-c3ccccc3F)ccc2n1 [Example E19, O-Benzyl-N-{[6-(2-fluorophenyl)imidazo[1,2-a]pyridin-2-yl]carbonyl}tyrosine]
224 to 227 °C	≤ 1000 nM	O=C(N[C@@H](Cc1ccc(OCc2ccccc2)cc1)C(=O)O)c1cn2nc(C#Cc3ccccc3)ccc2n1 [Example E22, O-Benzyl-N-{[6-(phenylethynyl)imidazo[1,2-b]pyridazin-2-yl]carbonyl}tyrosine]
232 °C	≤ 1000 nM	CS(=O)(=O)NC(=O)[C@H](Cc1ccc(OCc2ccccc2)cc1)NC(=O)c1cn2cc(-c3ccc(Cl)cc3)ccc2n1 [Example E23, O-Benzyl-Nα-{[6-(4-chlorophenyl)imidazo[1,2-a]pyridin-2-yl]carbonyl}-N-(methylsulfonyl)tyrosinamide]
